Results from patent publication US7932384B2, “Reverse-turn mimetics and method relating thereto” (Choongwae Pharma Corporation, priority 2001, dated 2011).

Key:
[1] = test system: Ephrin B2 (EphB2) receptor; test: EphB2 receptor expression (immunofluorescence and RT-PCR) in PC-12 PS-1/L286V cells; format: cell-based, Rat; conditions: PS-1/L286V mutant PC-12 cells, 10 μM
Method: Immunofluorescence. Cells were plated at a density of 10,000 cells/cm^2 on sterile coated 22×22 mm coverslips in a 6-well culture plate. Differentiation was initiated, as previously described, for 10 days. The differentiated cells were then fixed in methanol for 15 minutes at −20° C. This is followed by a 15 minutes incubation with PBS+0.1% Triton X-100. The coverslips were incubated with antibodies raised against Ephrin B2 Receptor (Santa Cruz Biotechnology) and Gap-43 (Novus Biologicals) for 40 minutes at 37° C. After a series of washes with PBS-Triton X-100, secondary antibody conjugated to FITC (Jackson ImmunoResearch, Westgrove, Pa.) was applied. All slides images were acquired using a Nikon PCM2000 Laser Scanning Confocal Microscope mounted on a Nikon Eclipse E600 upright microscope (Nikon, Melville, N.Y.).
RT-PCR. To analyze the mRNA levels for Ephrin B2 (EphB2) receptor, total RNA was isolated using Trizol (Invitrogen-GIBCO-BRL, Baltimore, Md.) from differentiated cells. 2 μg RNA was reverse transcribed in a total volume of 20 μl with random hexamer (50 ng), and using the Superscript II reverse transcription system (Invitrogen-GIBCO-BRL), according to manufacturer's guidelines. PCR was carried out in a 50 μl volume containing 5 μl cDNA, 100 pmol primers, 100 μM dNTPs, 1×Taq buffer and 1.5 mM MgCl2. […]

HCT116 cells = test: Flow cytometric analysis (FACS) of cell cycle, HCT116; format: cell-based; conditions: HCT116, 25 μM, 24 hours
Method: For FACS analysis, approx. 5×10^6 cells from Compound D-treated or vehicle-treated were fixed with 70% chilled ethanol and stored at −20° C. for at least 30 minutes. The cells were washed once with 1×PBS and incubated with propidium iodine (PI) solution (85 μg/ml propidium iodine, 0.1% Nonidet P-40, 10 mg/ml RNAse) for 30 minutes at room temperature. 10,000 stained cells for each sample were acquired using Beckman Coulter EPICS XL-MCL Flow Cytometry and the percentage of cells in different phase of the cell cycle was determined by Expo32 ADC software (Coulter Corporation, Miami, Fla., 33196).
It has been shown that inhibition of the expression of the cyclin D1 gene causes arrest at the G1/S-phase of the cell cycle (Shintani et al., “Infrequent alternations of RB pathway (Rb-p16INK4A-cyclin D1) in adenoid cystic carcinoma of salivary glands,” Anticancer Res. 20:2169-75 (2000)). […] The cells were subsequently stained with propidium iodide (PI) and analyzed for DNA content by FACS cytofluorometry.

[2] = test system: caspase-3/7 in SW480 cells; test: Caspase-3/7 activity assay, SW480; format: cell-based; conditions: SW480, 25 μM, 24 hours, compared to CCD18Co cells
Method: SW480, HCT116, and CCD18Co cells were plated at 10^5 cells per well (96-well plates) for 24 hours prior to treatment. […] 24 hours post treatment, cells were lysed and caspase activity was measured using a caspase-3/7 activity kit (Apo-One Homogeneous caspase-3/7 assay, #G77905, Promega). Relative fluorescence units (RFU) were obtained by subtracting the unit values of the blank (control, without cells) from the experimental measured values.
Caspases are cysteine proteases that are generally activated in a given population of cells triggered by apoptotic stimuli.

surviving promoter = test: Survivin promoter luciferase reporter in wild type, CBP+/−, p300+/− 3T3 cells; format: cell-based; conditions: with or without Wnt1
Text: A plasmid containing luciferase under the control of surviving promoter was constructed and transfected into wild type, CBP+/−, or p300+/−3T3 cells.

Ubiquitin = test: Real time RT-PCR gene expression, Ubiquitin; format: cell-based; conditions: 25 μM, 24 hours; <0.5 significant decrease, >1.5 significant increase
Method: (§1) Real time reverse transcription-PCR analysis was performed according to the protocol provided with the SYBR Green PCR Master Mix Kit (Perkin Elmer Biosystems, Shelton, ST). […] The primers used for the RT-PCR reactions were [NT] and [NT].

PCNA = test: Real time RT-PCR gene expression, PCNA; format: cell-based; conditions: 25 μM, 24 hours; <0.5 significant decrease, >1.5 significant increase
Method: as §1

Antigen KI-67 = test: Real time RT-PCR gene expression, Antigen KI-67; format: cell-based; conditions: 25 μM, 24 hours; <0.5 significant decrease, >1.5 significant increase
Method: as §1

MIC-1 = test: Real time RT-PCR gene expression, MIC-1; format: cell-based; conditions: 25 μM, 24 hours; <0.5 significant decrease, >1.5 significant increase
Method: as §1

GADD-153 = test: Real time RT-PCR gene expression, GADD-153; format: cell-based; conditions: 25 μM, 24 hours; <0.5 significant decrease, >1.5 significant increase
Method: as §1

`O=C1[C@H](Cc2ccc(O)cc2)N2C(=O)CCN(C(=O)NCc3ccccc3)[C@H]2CN1Cc1cccc2ccccc12` [Compound D] was tested, and the “EphB2 message (RT-PCR)” value [1] was “increased EphB2 message”, the “cell cycle distribution (FACS, PI)” value (HCT116 cells) was “increased accumulation at G1/S-phase of the cell cycle” and the caspase-3/7 activity [2] was “specifically and significantly activated the caspase-3/7 pathway”. For the same compound, the “survivin gene expression (promoter luciferase)” value (surviving promoter) was “reduces expression of the surviving gene”, the “Ratio (Treated/DMSO Control) Ubiquitin” value (Ubiquitin) was 0.98 and the “Ratio (Treated/DMSO Control) PCNA” value (PCNA) was 0.33. The “Ratio (Treated/DMSO Control) Antigen KI-67” value (Antigen KI-67) was 0.45, the “Ratio (Treated/DMSO Control) MIC-1” value (MIC-1) was 7.0 and the “Ratio (Treated/DMSO Control) GADD-153” value (GADD-153) was 7.00.
